According to publication PMC11451730, “A Fragment-Based Screen for Inhibitors of Escherichia coli N5-CAIR Mutase” (Research Square, 2024):

Assays:
E. coli N5-CAIR mutase [1] = target: T1, E. coli N5-CAIR mutase (Escherichia coli, UniProt P0AG18); test: biochemical; format: biochemical
T1 construct: His-tag (inferred from cobalt-resin/imidazole purification); made in house; host or cells: E. coli BL21(DE3), plasmid pJK057 (Addgene)
T1 sequence (P0AG18 1-169): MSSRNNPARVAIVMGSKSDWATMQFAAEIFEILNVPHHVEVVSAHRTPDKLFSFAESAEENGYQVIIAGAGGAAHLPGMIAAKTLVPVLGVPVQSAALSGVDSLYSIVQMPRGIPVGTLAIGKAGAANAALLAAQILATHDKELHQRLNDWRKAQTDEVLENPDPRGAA

bacterial N5-CAIR mutase = conditions: bacterial enzyme; cited from earlier work
E. coli N5-CAIR mutase [2] = target: T1, E. coli N5-CAIR mutase; test: Thermal shift assay (thermal binding assay); conditions: NAIR 20 μM, eight replicates; enzyme alone 57 ± 0.36°C
[3] = target: Gallus gallus AIR carboxylase; conditions: cited from earlier work
[4] = system: Gallus gallus AIR carboxylase; test: Inhibition of AIR carboxylase by NAIR (literature); format: biochemical

CN1CCCC(c2cnc(-c3ncco3)cn2)C1 (stereo not drawn) [Compound 2]
Ki (E. coli N5-CAIR mutase [1]): 4.8 µM
mechanism of inhibition (E. coli N5-CAIR mutase [1]): sigmoidal Michaelis-Menten curve

Cc1cnc(-c2ccc(C3CCCNC3)nc2)s1 (stereo not drawn) [Compound 9]
Ki (E. coli N5-CAIR mutase [1]): 83 µM
mechanism of inhibition (E. coli N5-CAIR mutase [1]): competitive

CN1CCCC(Cc2cccnc2)C1 (stereo not drawn) [Compound 10]
inhibition of enzyme activity (E. coli N5-CAIR mutase [1]): no inhibition

Cc1nc(-c2ccc(C3CCCN3)nc2)sc1C (stereo not drawn) [Compound 22]
Ki (E. coli N5-CAIR mutase [1]): 159 µM
mechanism of inhibition (E. coli N5-CAIR mutase [1]): uncompetitive

c1cnc(CC2CCNC2)nc1 (stereo not drawn) [Compound 25]
Ki (E. coli N5-CAIR mutase [1]): 31 µM
mechanism of inhibition (E. coli N5-CAIR mutase [1]): non-competitive

Cc1ccc(Nc2nnns2)cc1 [Compound 34, reference compound]
inhibition of E. coli N5-CAIR mutase (E. coli N5-CAIR mutase [1]): do not show inhibition

CCc1ccc(C(=O)Nc2nncs2)s1 [Compound 35, reference compound]
inhibition of E. coli N5-CAIR mutase (E. coli N5-CAIR mutase [1]): do not show inhibition

Nc1c([N+](=O)[O-])ncn1[C@@H]1O[C@H](COP(=O)(O)O)[C@@H](O)[C@H]1O [NAIR, 4-nitro-5-aminoimidazole ribonucleotide]
Ki (bacterial N5-CAIR mutase): 0.5 µM
average melting temperature of N5-CAIR mutase with compound bound (E. coli N5-CAIR mutase [2]): 75 ± 0.32 °C
Ki [3]: 0.00034 µM
selectivity for AIR carboxylase over N5-CAIR mutase [4]: 1000 fold
